{
  "source": "patent EP4516309A1",
  "about": "“CRHR1 AGONISTS FOR USE IN THE TREATMENT OF SOCIAL ANXIETY DISORDERS” (Consejo Superior de Investigaciones Cientificas, priority 2023, dated 2025)",
  "key": {"CRHR1 [1]": {"molecular_target": "T1, CRHR1 (Mus musculus, UniProt P35347)", "T1 sequence (P35347 24-415)": "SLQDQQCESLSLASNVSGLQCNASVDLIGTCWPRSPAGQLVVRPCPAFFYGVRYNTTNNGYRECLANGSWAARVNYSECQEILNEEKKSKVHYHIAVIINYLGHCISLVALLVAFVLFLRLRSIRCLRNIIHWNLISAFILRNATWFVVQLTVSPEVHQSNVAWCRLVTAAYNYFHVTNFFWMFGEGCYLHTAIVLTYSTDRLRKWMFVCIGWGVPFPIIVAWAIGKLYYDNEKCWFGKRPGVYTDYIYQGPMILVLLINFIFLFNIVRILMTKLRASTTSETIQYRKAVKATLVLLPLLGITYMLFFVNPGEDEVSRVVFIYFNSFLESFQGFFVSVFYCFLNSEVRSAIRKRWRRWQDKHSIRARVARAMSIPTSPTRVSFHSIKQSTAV", "test": "Inhibitory events in rdLS neurons before and after tetanic light stimulation of ILA CRH fibers, with or without antagonist", "assay_type": "cell-based, mice", "details": "300 nM antalarmin in the bath", "source_text": "The inventors prepared coronal brain slices from 8- to 12-week-old C57BL6/J mice. Animals were killed under isoflurane anesthesia by perfusion into the right ventricle of ice-cold solution containing the following (in mM): 125 NaCl, 2.5 KCI, 22.5 glucose, 25 NaHCOs, 1.25 NaH2PO4, 3 Na Pyruvate, 1 Ascorbic acid, 2 CaCl2 and 1 MgCl2). ACSF was saturated with 95% O2 and 5% CO2, pH 7.4. Brains were cut into 400 µm slices with a vibratome (VT1200S, Leica) in the same ice-cold dissection solution. Slices were then transferred to an incubation chamber containing the same ACSF solution. The chamber was kept at 34°C for 30 min and then at room temperature for at least 1 h before recording. All experiments were performed at room temperature. Slices were mounted in the recording chamber under a microscope. Recordings were acquired using the Multiclamp 700A amplifier (Molecular Device), data acquisition interface ITC-18 (Instrutech) and the Axograph software. […] Inhibitory currents were recorded in voltage-clamp configuration at +10 mV. […] LS neurons from WT mice were also recorded. […]\nThe inventors expressed channel rhodopsin in ILA^CRH neurons and prepared rdLS slices (Fig. 15F). The inventors obtained whole-cell recordings of rdLS neurons and recorded spontaneous inhibitory events (sIPSC) before and after applying a tetanic light stimulation. […]"}, "CRHR1 [2]": {"test_system": "CRHR1", "test": "Social novelty preference test after cannula infusion in rdLS", "assay_type": "in vivo, C57BL/6J wild-type mice", "details": "2 µg of antalarmin in 0.6 µL of DMSO infused in rdLS", "source_text": "The mouse scalp was removed and scored before a hole was drilled (AP +0.9, ML ±0). A cannula guide extending 2.4 mm below the pedestal (Plastics One #C315G 2-G11-SPC) was lowered slowly and kept in place using superglue. The skull was then covered with dental cement (GC FujiCEM 2) and dummy cannulas (Plastics One #C315DC-SPC) were inserted into the guides. The mice were returned to their home cages and left to recover for at least 1 week. For rdLS infusion, mice were placed under light isoflurane anesthesia (2%) and the dummy cannula was removed. A cannula (Plastics One #C315I-SPC) projecting 2.5 mm from the tip of the cannula guide was mounted. […]\nSocial novelty preference test. […] Using automatic tracking of the test mice (ANY-Maze, Stoelting), the inventors quantified the time the test mice spent in the immediate area surrounding each cup - and therefore, interacting with each stimulus mice - during learning and recall. Using the interaction time from the recall trial, the inventors calculated a discrimination index for social novelty preference as the following: D! = (time with novel - time with familiar) / total interaction time. […] The inventors also calculated the total time spent interacting with stimulus mice during each trial in order to verify that the sociability drive was not affected. […]"}, "[3]": {"test_system": "GABAA and GABAB receptors", "test": "Light-induced IPSCs in rdLS neurons after stimulation of CRH+ fibers from ILA expressing Channelrhodopsin", "assay_type": "cell-based, mice", "details": "2µM SR 95531 and 1µM CGP 55845 applied together; neurons held at +10 mV", "procedure": "The inventors prepared coronal brain slices from 8- to 12-week-old C57BL6/J mice. […] Brains were cut into 400 µm slices with a vibratome (VT1200S, Leica) in the same ice-cold dissection solution. Slices were then transferred to an incubation chamber containing the same ACSF solution. The chamber was kept at 34°C for 30 min and then at room temperature for at least 1 h before recording. All experiments were performed at room temperature. Slices were mounted in the recording chamber under a microscope. Recordings were acquired using the Multiclamp 700A amplifier (Molecular Device), data acquisition interface ITC-18 (Instrutech) and the Axograph software. The inventors targeted CA2 PNs based somatic location and size in both deep and superficial layer. […] The liquid junction potential was 1.2 mV and was left uncorrected. Inhibitory currents were recorded in voltage-clamp configuration at +10 mV. […] LS neurons from WT mice were also recorded. […] The inventors used the Axograph software for data acquisition, and Excel (Microsoft) and PRISM (Graphpad) for data analysis."}, "CRHR1 [4]": {"test_system": "CRHR1", "test": "Whole-cell patch-clamp recordings from rdLS CRHR1 neurons in acute LS slices", "assay_type": "cell-based", "details": "300 nM stressin-1, bath application; CRHR1-Cre;Ai9 mice; neurons clamped at -60 mV"}, "CRHR1 [5]": {"test_system": "CRHR1", "test": "Spontaneous IPSC recording from LS cells in acute slices before and after agonist application", "assay_type": "cell-based, mice", "details": "300 nM", "excerpt": "The inventors prepared coronal brain slices from 8- to 12-week-old C57BL6/J mice. Animals were killed under isoflurane anesthesia by perfusion into the right ventricle of ice-cold solution containing the following (in mM): 125 NaCl, 2.5 KCI, 22.5 glucose, 25 NaHCOs, 1.25 NaH2PO4, 3 Na Pyruvate, 1 Ascorbic acid, 2 CaCl2 and 1 MgCl2). ACSF was saturated with 95% O2 and 5% CO2, pH 7.4. Brains were cut into 400 µm slices with a vibratome (VT1200S, Leica) in the same ice-cold dissection solution. Slices were then transferred to an incubation chamber containing the same ACSF solution. The chamber was kept at 34°C for 30 min and then at room temperature for at least 1 h before recording. All experiments were performed at room temperature. Slices were mounted in the recording chamber under a microscope. Recordings were acquired using the Multiclamp 700A amplifier (Molecular Device), data acquisition interface ITC-18 (Instrutech) and the Axograph software. […] Whole-cell recordings were obtained from LS neurons in voltage-clamp mode at -70 mV patch pipette (3-5 MΩ) containing the following (in mM): 135 Cs-gluconate, 5 KCI, 0.2 EGTA-Na, 10 HEPES, 2 NaCl, 5 ATP, 0.4 GTP, 10 phosphocreatine, and 5 µM biocytin, pH 7.2 (280-290 mOsm). The liquid junction potential was 1.2 mV and was left uncorrected. Inhibitory currents were recorded in voltage-clamp configuration at +10 mV. The inventors recorded rdLS neurons in septal slices from CRH-Cre mice expressing channelrhodopsin and applied 2 µM SR 95531 (Tocris, # 1262) and 1 µM CGP 55845 (Tocris, #1248) to block GABAA and GABAB receptors, respectively while monitoring the light induced IPSCs in rdLS neurons. The inventors also applied a tetanic light stimulation (3 times 100 pulses of 1 ms at 100 Hz) with or without 300 nM antalarmin (Tocris, #2778) present in the bath. LS neurons from WT mice were also recorded. After 10 min of stable baseline recording, stressin-1 (300 nM, Tocris # 1608) was applied following a 1:1000 dilution from stock solution into the ACSF. The inventors used the Axograph software for data acquisition, and Excel (Microsoft) and PRISM (Graphpad) for data analysis.\nThe inventors prepared acute LS slices from WT mice and recorded spontaneous inhibitory post-synaptic currents (IPSCs) from rdLS cells in whole-cell configuration before applying the CRHR1 agonist stressin-1 (300 nM, Fig. 15A-B). Stressin-1 application for 15 min decreased the frequency and integrated charge of spontaneous IPSCs (Fig. 15B-C and E). […] This effect was not seen when rLS neurons were recorded for 15 min without application of the agonist (Fig. 16 A1-A5)."}, "[6]": {"details": "application for 15 min, rdLS cells, WT mice"}},
  "data": [
    {"compound": "CCCCN(CC)c1nc(C)nc2c1c(C)c(C)n2-c1c(C)cc(C)cc1C", "note": "[antalarmin]", "values": [
      {"measurement": "decrease in inhibition (sIPSC frequency, amplitude, charge; elicited IPSC) following light stimulation", "setting": "CRHR1 [1]", "result": "blocked the disinhibition"},
      {"measurement": "preference for the novel mouse", "setting": "CRHR1 [2]; recall trial", "result": "showed no novelty preference"},
      {"measurement": "Total exploration time during learning or recall", "setting": "CRHR1 [2]; vs. DMSO", "result": "not different between groups"}
    ]},
    {"compound": "C[C@H](NC[C@H](O)CP(=O)(O)Cc1ccccc1)c1ccc(Cl)c(Cl)c1", "note": "[CGP 55845]", "values": [
      {"measurement": "light-induced IPSCs", "setting": "[3]", "result": "abolished"}
    ]},
    {"compound": "stressin-1", "values": [
      {"measurement": "current in rdLSCRHR1 neurons", "setting": "CRHR1 [4]", "result": "induced an inward current"},
      {"measurement": "IPSCs of vLS neurons", "setting": "CRHR1 [5]; 15 min, vLS neurons in posterior LS slices", "result": "had no effect"},
      {"measurement": "IPSC amplitude", "setting": "CRHR1 [5]; [6]", "result": "trend toward a decrease"},
      {"measurement": "frequency of spontaneous IPSCs", "setting": "CRHR1 [5]; [6]", "result": "decreased"},
      {"measurement": "integrated charge of spontaneous IPSCs", "setting": "CRHR1 [5]; [6]", "result": "decreased"}
    ]},
    {"compound": "COc1ccc(-c2ccc(=N)n(CCCC(=O)O)n2)cc1", "note": "[SR 95531]", "values": [
      {"measurement": "light-induced IPSCs", "setting": "[3]", "result": "abolished"}
    ]}
  ]
}
